Paper PMC4661928, “Production of Two Novel Methoxy-Isoflavones from Biotransformation of 8-Hydroxydaidzein by Recombinant Escherichia coli Expressing O-Methyltransferase SpOMT2884 from Streptomyces peucetius” (International Journal of Molecular Sciences, 2015)

Target: T1, SpOMT2884 (Streptomyces peucetius, UniProt T1WTM5)
T1 construct: gene OMT2884; codon-optimised synthetic gene in pETDuet-1 (NdeI/XhoI), expressed in E. coli BL21(DE3); whole-cell biotransformation, not purified
T1 sequence (T1WTM5 1-223): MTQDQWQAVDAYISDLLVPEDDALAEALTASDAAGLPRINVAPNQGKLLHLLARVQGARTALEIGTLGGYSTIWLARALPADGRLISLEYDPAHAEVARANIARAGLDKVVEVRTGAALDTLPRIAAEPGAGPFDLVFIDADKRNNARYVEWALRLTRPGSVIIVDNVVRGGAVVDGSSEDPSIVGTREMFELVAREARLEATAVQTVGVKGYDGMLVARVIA
Assay: whole-cell biotransformation, UPLC; products by MS and NMR
Format: cell-based
Settings: recombinant E. coli BL21(DE3), 0.1 mM substrate, 37 °C, endogenous SAM; 7-O- and 8-O-methylation

O=c1c(-c2ccc(O)cc2)coc2c(O)c(O)ccc12 [8-hydroxydaidzein]
whole-cell biotransformation, UPLC; products by MS and NMR: SpOMT2884 catalyzes either 7-O-methylation or 8-O-methylation in 8-hydroxydaidzein
